The target in one data set is hCA IX (Homo sapiens (Human), UniProt Q16790). Description: CA-catalyzed CO2 hydration stopped-flow inhibition assay, hCA IX.
In data set [1] the test system is cervical (HeLa) carcinoma cell line. As to the kind of experiment: Extracellular acidification (delta pH of medium) in HeLa cells. Format: cell-based, human. Here is the method: (§1) The experiment was set up as previously described (Dubois et al, 2007). A colorectal (HT-29) (FIG. 5a) and a cervical (HeLa) (FIG. 5b) carcinoma cell line were tested in normoxic (ambient oxygen concentration) and hypoxic (0.2% oxygen) conditions. HT-29 cells are known to be constitutive hypoxia inducible CA IX (CA IX expression under normoxia and increased CA IX expression upon hypoxia) expressing cells. Therefore, compounds were added after 1 h of hypoxic exposure (to ensure active CA IX) and incubation was done for another 23 h (total of 24 h hypoxia). HeLa cells are hypoxia inducible (at lower density) CA IX expressing cells. Therefore, HeLa were first incubated for 24 h hypoxia to ensure CA IX expression in the first place (time point assessed in time series experiments). Afterwards, compounds were added and cells were incubated for another 24 h.
(§2) Experiments were performed in triplicate for each condition. The described conditions were done both for HT-29 and HeLa under normoxic and hypoxic conditions.
(§3) Following conditions were assessed: • Blank 1 mM or 0.1 mM (no addition of compound, only DMSO/PBS) • DH307 1 mM or 0.1 mM • DH310 1 mM or 0.1 mM • DH338 1 mM or 0.1 mM • DH348 1 mM or 0.1 mM • S=AEBS (4-(2-aminoethylbenzenesulfonamide); Sigma) 1 mM or 0.1 mM (known to reduce extracellular pH as described by (Svastova et al, 2004))
(§4) Cells were seeded in 6 cm dishes (HT-29: 10e6; HeLa: 4×10^5: to compensate for cell size) in 5 ml of DMEM supplemented with 10% FCS. The day after, medium was replaced by 3.6 ml of freshly prepared DMEM/FCS 10%, from which the pH was measured=pH at incubation), after which dishes were placed in the hypoxic chamber (normoxic dishes remained at ambient air in the incubator: 37° C., 95% humidity, 5% CO2). Compounds were added (1 h for HT-29 or 24 h for HeLa after start hypoxic exposure) to have a final concentration of 1 mM or 0.1 mM, by adding 400 μl to the dishes, starting from a 10 or 1 mM stock (DMSO final concentration 0.1%). Blanc controls received DMSO/PBS without compound. pH of the medium was measured after 24 h (HT-29) or 48 h (HeLa) inside the hypoxic chamber after calibration of the electrode to reduced oxygen concentrations. Delta pH (pH at end hypoxic exposure−pH of replacement medium before incubation) were calculated and shown in the graph of FIGS. 5a and 5b.

Data set [2] has as its system colorectal (HT-29) carcinoma cell line. Description: Extracellular acidification (delta pH of medium) in HT-29 cells. Format: cell-based. To be noted: for reduction of extracellular acidification: HT-29, hypoxia (0.2% oxygen). The protocol:
as §1, §2, §3, §4

The mark [3] stands for this setting: read-out: KI hCA IX, stopped-flow CO2 hydration, pH 7.5, 15 min preincubation.

Like-named read-outs stand apart in the source and are kept apart here.

Experimental for hCA IX: The uncatalyzed rates were determined in the same manner and subtracted from the total observed rates. Stock solutions of inhibitor (1 mM) were prepared in distilled-deionized water with 10-20% (v/v) DMSO (which is not inhibitory at these concentrations) and dilutions up to 0.1 nM were done thereafter with distilled-deionized water. Inhibitor and enzyme solutions were preincubated together for 15 min at room temperature prior to assay, in order to allow for the formation of CA IX-inhibitor complex. The inhibition constants were obtained by non-linear last-squares methods using PRISM 3 and represent the mean from at least three different determinations.

Turning to `NS(=O)(=O)c1ccc(NC(=O)Cn2ccnc2[N+](=O)[O-])cc1` [Compound 4a, 2-(2-nitro-imidazol-1-yl)-N-(4-sulfamoylphenyl)acetamide], the melting point lay within 163 to 165 °C. Further, the inhibitory constant (Ki) on hCA IX (setting [3]) was found to be 70 nM.

In the case of `NS(=O)(=O)c1cccc(NC(=O)Cn2ccnc2[N+](=O)[O-])c1` [Compound 4b, 2-(2-nitro-imidazol-1-yl)-N-(3-sulfamoylphenyl)acetamide], the melting point fell in the range of 195 to 197 °C.

In turn, `NS(=O)(=O)c1ccc(CCNC(=O)Cn2ccnc2[N+](=O)[O-])cc1` [Compound 4d, 2-(2-nitro-imidazol-1-yl)-N-[2-(4-sulfamoylphenyl)ethyl]acetamide] displayed a melting point of 139 to 141 °C. At hCA IX, this compound displayed a Ki of 7.3 nM.

As for `Cc1ncc([N+](=O)[O-])n1CCNC(=S)Nc1ccc(S(N)(=O)=O)cc1` [Compound 6a, N-(4-sulfamoylphenyl)-N-((2-aminoethyl)-2-methyl-5-nitroimidazolyl)thiourea], the inhibition constant Ki on hCA IX (setting [3]) came out at 7.3 nM.

Take `Cc1ncc([N+](=O)[O-])n1CCNC(=S)NCc1ccc(S(N)(=O)=O)cc1` [Compound 6c, N-(4-sulfamoylbenzyl)-N-((2-aminoethyl)-2-methyl-5-nitroimidazolyl)thiourea]: the “reduction of extracellular acidification” value is given as “strong reduction” in data set [1] (hypoxia (0.2% oxygen), 0.1 mM) and “made the medium alkaline” in data set [1] (hypoxia (0.2% oxygen), 1 mM). Besides, at hCA IX (setting [3]), the Ki came to 8.3 nM.

Turning to `Cc1ncc([N+](=O)[O-])n1CCNC(=S)NCCc1ccc(S(N)(=O)=O)cc1` [Compound 6d, N-(4-sulfamoylphenylethyl)-N-((2-aminoethyl)-2-methyl-5-nitroimidazolyl)thiourea], the Ki on hCA IX (setting [3]) is 7.8 nM.

As for `Cc1ncc([N+](=O)[O-])n1CCNS(N)(=O)=O` [Compound 7, N-[2-(2-methyl-5-nitro-imidazol-1-yl)ethyl]sulfamide], the melting point came to 122 °C. Moreover, the “reduction of extracellular acidification” value in data set [2] (0.1 mM) is “additional reduction compared with the other compounds”. In addition, the “reduction of extracellular acidification” value in data set [2] (1 mM) is “best results”. For the same compound, in data set [1] (hypoxia, concentration not specified), the “reduction of extracellular acidification” value is reported as “best results”.

Consider `NCCc1ccc(S(N)(=O)=O)cc1` [S, 4-(2-aminoethylbenzenesulfonamide), reference compound], for which the “reduction of extracellular acidification” value in data set [2] (0.1 mM) is “less”; in data set [2] (1 mM), “effectively reduced the extracellular acidification”; in data set [1] (hypoxia (0.2% oxygen), 0.1 mM), “less”; in data set [1] (hypoxia (0.2% oxygen), 1 mM) it was “effectively reduced the extracellular acidification”. The “effect on extracellular acidification upon normoxic exposure” value in data set [2] (HT-29, normoxia) was “No effect”; in data set [1] (normoxia) it was “No effect”.

Consider “N-[2-(2-methyl-5-nitro-imidazol-1-yl)ethyl]sulfamate [Compound 9]”, for which the “reduction of extracellular acidification” value in data set [2] (1 mM) was “best results”.

Usually melting point stands for the temperature, or range, at which the solid turns liquid. For orientation: Ki means a dissociation constant, usually derived from enzyme kinetics or from competition with a known ligand.

These data come from patent publication US8980932B2, “Cancer targeting using carbonic anhydrase isoform IX inhibitors” (Stichting Maastricht Radiation Oncology “Maastro-Clinic”, priority 2010, dated 2015).
